Data: the NIST ThermoML archive (doi:10.1016/j.jct.2018.11.010)

Assay: xn = mol fraction of the nth substance listed
Settings: Liquid, Vibrating tube method

CCCCCCCO [heptan-1-ol] + CCCCOCCCC
mass density [kg/m3]
Settings	x2 = 0	x2 = 0.1488	x2 = 0.3201	x2 = 0.4944	x2 = 0.7014	x2 = 0.8534
333.15 K, 140000 kPa	–	857.7	850.3	843.3	834.8	829
353.15 K, 100 kPa	778.1	768	756.6	745.6	732.4	723.4
353.15 K, 1000 kPa	778.8	768.8	757.4	746.6	733.4	724.5
353.15 K, 5000 kPa	782.3	772.5	761.4	750.8	738	729.4
353.15 K, 10000 kPa	786.3	776.8	766	755.8	743.3	735
353.15 K, 15000 kPa	790.2	781	770.4	760.4	748.4	740.3
353.15 K, 20000 kPa	793.9	784.8	774.5	764.8	753.1	745.2
353.15 K, 25000 kPa	797.3	788.5	778.4	768.9	757.4	749.8
353.15 K, 30000 kPa	800.7	792.1	782.3	772.9	761.7	754.1
353.15 K, 35000 kPa	804	795.5	785.8	776.7	765.6	758.3
353.15 K, 40000 kPa	807.1	798.6	789.2	780.1	769.4	762.1
353.15 K, 45000 kPa	810	801.8	792.5	783.7	773	765.9
353.15 K, 50000 kPa	813	804.9	795.8	787.1	776.7	769.6
353.15 K, 55000 kPa	815.8	807.8	798.8	790.2	779.9	773.1
353.15 K, 60000 kPa	818.6	810.7	801.8	793.3	783.2	776.5
353.15 K, 65000 kPa	821.2	813.5	804.7	796.4	786.3	779.7
353.15 K, 70000 kPa	823.8	816.2	807.5	799.3	789.5	782.9
353.15 K, 80000 kPa	828.7	821.2	812.8	804.8	795.2	788.8
353.15 K, 90000 kPa	833.5	826.2	817.9	810.1	800.7	794.4
353.15 K, 100000 kPa	837.9	830.8	822.7	815.1	805.9	799.8
353.15 K, 110000 kPa	842.3	835.3	827.4	819.9	810.9	804.9
353.15 K, 120000 kPa	846.4	839.5	831.8	824.4	815.6	809.7
353.15 K, 130000 kPa	850.3	843.7	836	828.7	820.1	814.2
353.15 K, 140000 kPa	854.3	847.6	840.1	833	824.5	818.7
373.15 K, 100 kPa	761.9	–	–	–	–	–
373.15 K, 1000 kPa	762.8	752.3	740.4	729.1	715.4	706.3
373.15 K, 5000 kPa	766.6	756.5	744.8	733.9	720.7	711.9
373.15 K, 10000 kPa	771.1	761.3	750	739.6	726.7	718.3
373.15 K, 15000 kPa	775.5	765.9	754.9	744.8	732.4	724.2
373.15 K, 20000 kPa	779.5	770.2	759.5	749.6	737.6	729.7
373.15 K, 25000 kPa	783.4	774.3	763.9	754.3	742.5	734.8
373.15 K, 30000 kPa	787.1	778.1	768	758.6	747.2	739.6
373.15 K, 35000 kPa	790.6	781.9	772	762.7	751.6	744.1
373.15 K, 40000 kPa	794	785.4	775.7	766.7	755.7	748.5
373.15 K, 45000 kPa	797.2	788.9	779.3	770.5	759.7	752.7
